Measured values as given in patent US9629847B2, “Compositions and methods for treating symptoms of inflammatory related conditions using a combination of an antihistamine and a stimulant” (priority 2011, dated 2017).

Test system: TPA induction of neutrophil MPO activity
Assay: Systemic effect: MPO activity in contralateral vehicle-treated ear after topical application (TPA model)
Text: These include dexamethasone, a steroid, and indomethasone, a non-steroid anti-inflammatory drug, which targets cycloxygenases.

SMILES | effect on MPO activity of contralateral vehicle-treated ear (systemic effect) (mouse, in vivo) | effect on MPO activity of contralateral vehicle-treated ear (systemic effect) (topical, increasing concentration)
C[C@@H]1C[C@H]2[C@@H]3CCC4=CC(=O)C=C[C@]4(C)[C@@]3(F)[C@@H](O)C[C@]2(C)[C@@]1(O)C(=O)CO [dexamethasone] | increasing inhibition of MPO activity | –
COc1ccc2c(c1)c(CC(=O)O)c(C)n2C(=O)c1ccc(Cl)cc1 [indomethasone] | – | increasing inhibition of MPO activity
